Test results taken from patent publication US10208056B2, “Condensed tricyclic compounds as protein kinase inhibitors” (FUNDACIÓN DEL SECTOR PÚBLICO ESTATAL CENTRO NACIONAL DE …, priority 2015, dated 2019).
Like-named read-outs stand apart in the source and are kept apart here.

How the values were obtained:
[1] = molecular target: CDK8/Cyclin C (Homo sapiens (Human), UniProt P49336); experiment: CDK8/Cyclin C binding assay (LanthaScreen Eu-Kinase Binding Assay); details: binding assay
Description: The enzyme has been purchase from Invitrogen (PV4402) as a dimer of full-length His-tagged recombinant human proteins.
Assays were performed in 384-well plates. The final read out was generated using an EnVision plate reader (Perkin-Elmer).

[2] = molecular target: Haspin kinase (Homo sapiens (Human), UniProt Q8TF76); experiment: Haspin kinase assay (ADP-Glo); format: biochemical; details: ATP 150 μM
Procedure, shortened: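 Compounds in 1:3 serial dilutions (1% DMSO final) were incubated 60 min at 30 °C with 20 nM recombinant GST-Haspin kinase domain and 150 μM ATP, without substrate, in pH 7.4 HEPES/MgCl2 buffer. ADP formed was read by luciferase luminescence and normalized to uninhibited enzyme to give % inhibition.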

[3] = molecular target: intracellular HASPIN (Homo sapiens (Human), UniProt Q8TF76); experiment: Cellular HASPIN inhibition assay, western blot phospho H3T3 in synchronized SW620 cells; format: cell-based; details: read-out: SW620 PH3(T3) in synchronized cells
Description: Compounds can be screened for their ability to inhibit intracellular HASPIN using a western blot assay to detect phosphorylation of the HASPIN substrate H3T3 in synchronized cells. SW620 cells are plated at 200000 cells per well in 6-well plates (Solmeglas 13118) in RPMI media (Sigma-Aldrich R6504) supplemented with 10% foetal bovine serum (Sigma-Aldrich F7524), Penicillin/Streptomycin solution diluted 1:100 (Gibco 15070-063), and fungizone (Gibco, 15290-018), and allowed to adhere overnight at 37° C. in 5% CO2. Cells are then treated 16 h hours with Nocadazole (Sigma-Aldrich M1404) at 250 ng/ml to arrest them in mitosis. Proteasoma inhibitor MG132 (Sigma-Aldrich C2211) is added to a final concentration of […] to keep cells arrested in mitosis. Compounds are then added to the cell media from a final concentration of 10 μM in 10-fold serial dilutions and the cells are incubated at 37° C. in 5% CO2. After 1 hour and 30 minutes of treatment with the compounds, the cells are washed in PBS, lysed adding 100 μl of protein lysis buffer (62.5 mM Tris pH 6.8 al 6.25%, 2% SDS y 10% glycerol) incubation 10 minutes at room temperature and heating at 95° C. 10 min. The protein content of the lysates is determined by DC protein assay (Biorad, Ref. 5000116). The proteins are resolved by SDS-PAGE and transferred to nitrocellulose membrane (VWR International eurolab, Ref. 732-4007). The membranes are incubated overnight at 4° C. with antibodies specific for total H3 (Millipore #07424), phosphothreonine-3 H3 (Cell Signaling Ref. 14269) they are washed and then incubated with IRDye800 conjugated anti-mouse (Pierce/Cultek, 35521) and Alexa Fluor 680 goat anti-rabbit IgG secondary antibodies (Invitrogen, A21076). The bands are visualized and quantified using an Odyssey infrared imaging system (Li-Cor Biosciences). The percentage of phosphorylated H3 vs total H3 in synchronized cells is taken as hundred percent of phosphorylation. The percentage of H3 phosphorylation is finally plotted against concentration for each compound and EC50s for intracellular HASPIN inhibition are calculated using ActivityBase from IDBS.

[4] = tested on: MV4:11; experiment: In vitro cell proliferation assay (CellTiter-Glo), MV4:11; format: cell-based; details: Homo sapiens, MV4-11, growth inhibition, read-out: GI50 MV4:11
[5] = tested on: MDA-MB-231; experiment: In vitro cell proliferation assay (CellTiter-Glo), MDA-MB-231; format: cell-based; details: Homo sapiens, MDA-MB-231, growth inhibition, read-out: GI50 MDA-MB-231
[6] = tested on: SW620; experiment: In vitro cell proliferation assay (CellTiter-Glo), SW620; format: cell-based, human; details: Homo sapiens, SW-620, growth inhibition, read-out: GI50 SW620

Haspin kinase, sequence (Q8TF76 484-798): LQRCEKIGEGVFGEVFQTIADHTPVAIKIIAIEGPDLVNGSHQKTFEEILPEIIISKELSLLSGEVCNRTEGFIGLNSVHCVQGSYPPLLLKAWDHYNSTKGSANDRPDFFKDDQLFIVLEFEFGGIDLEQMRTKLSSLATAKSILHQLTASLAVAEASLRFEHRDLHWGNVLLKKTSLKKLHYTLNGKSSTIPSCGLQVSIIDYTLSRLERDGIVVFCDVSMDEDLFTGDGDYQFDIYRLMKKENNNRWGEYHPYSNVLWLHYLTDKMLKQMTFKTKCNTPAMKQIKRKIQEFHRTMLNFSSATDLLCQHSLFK
CDK8/Cyclin C, sequence (P49336 whole entry): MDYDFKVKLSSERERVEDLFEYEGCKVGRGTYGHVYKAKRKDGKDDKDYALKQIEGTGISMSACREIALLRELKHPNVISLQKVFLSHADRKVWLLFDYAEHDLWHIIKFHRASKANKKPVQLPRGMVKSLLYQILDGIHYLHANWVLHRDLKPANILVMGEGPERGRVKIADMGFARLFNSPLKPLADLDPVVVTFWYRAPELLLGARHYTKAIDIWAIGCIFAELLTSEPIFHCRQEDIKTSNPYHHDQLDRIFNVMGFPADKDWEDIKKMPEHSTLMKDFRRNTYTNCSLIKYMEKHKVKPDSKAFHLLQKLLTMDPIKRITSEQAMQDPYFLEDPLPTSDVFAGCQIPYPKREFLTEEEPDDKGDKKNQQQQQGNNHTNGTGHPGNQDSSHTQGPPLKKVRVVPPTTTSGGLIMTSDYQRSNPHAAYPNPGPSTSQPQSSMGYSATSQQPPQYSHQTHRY
CDK8/Cyclin C, sequence (P24863 whole entry partner): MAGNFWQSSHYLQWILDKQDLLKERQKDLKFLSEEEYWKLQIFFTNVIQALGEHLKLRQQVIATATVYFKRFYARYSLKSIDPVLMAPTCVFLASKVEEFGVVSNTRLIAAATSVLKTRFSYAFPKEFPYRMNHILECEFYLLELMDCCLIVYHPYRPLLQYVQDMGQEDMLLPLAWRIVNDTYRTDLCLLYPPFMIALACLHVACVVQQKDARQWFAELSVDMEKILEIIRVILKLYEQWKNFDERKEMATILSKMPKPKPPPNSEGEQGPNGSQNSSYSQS
intracellular HASPIN, sequence (Q8TF76 whole entry): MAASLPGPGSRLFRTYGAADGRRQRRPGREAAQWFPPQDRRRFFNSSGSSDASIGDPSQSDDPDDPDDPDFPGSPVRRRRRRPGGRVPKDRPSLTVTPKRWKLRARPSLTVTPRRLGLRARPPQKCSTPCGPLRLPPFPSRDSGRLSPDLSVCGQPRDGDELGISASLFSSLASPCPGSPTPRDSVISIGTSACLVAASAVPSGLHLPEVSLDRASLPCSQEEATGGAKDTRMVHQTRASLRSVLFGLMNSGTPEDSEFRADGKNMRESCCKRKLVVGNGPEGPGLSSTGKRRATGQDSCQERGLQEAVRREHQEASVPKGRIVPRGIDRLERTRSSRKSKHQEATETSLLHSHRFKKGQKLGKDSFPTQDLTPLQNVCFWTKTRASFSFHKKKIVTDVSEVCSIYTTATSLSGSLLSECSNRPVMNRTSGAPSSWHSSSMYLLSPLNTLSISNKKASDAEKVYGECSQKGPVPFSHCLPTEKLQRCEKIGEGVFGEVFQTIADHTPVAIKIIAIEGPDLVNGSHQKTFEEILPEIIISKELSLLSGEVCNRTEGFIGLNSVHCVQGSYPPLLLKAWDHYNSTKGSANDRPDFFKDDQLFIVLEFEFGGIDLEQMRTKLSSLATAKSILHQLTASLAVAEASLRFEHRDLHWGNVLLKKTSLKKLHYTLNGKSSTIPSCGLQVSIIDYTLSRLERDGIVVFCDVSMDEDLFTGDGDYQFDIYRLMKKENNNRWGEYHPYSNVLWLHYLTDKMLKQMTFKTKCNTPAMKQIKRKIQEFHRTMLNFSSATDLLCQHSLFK

Row | IC50 [1] [µM] | IC50 [2] [µM] | EC50 ([3]; semiquantitative) [µM] | GI50 ([4]; semiquantitative) [µM] | GI50 ([5]; semiquantitative) [µM] | GI50 ([6]; semiquantitative) [µM] | EC50 ([3]; quantitative) [µM] | GI50 ([4]; quantitative) [µM] | GI50 ([5]; quantitative) [µM] | GI50 ([6]; quantitative) [µM] | SMILES
1 | 0.00446 | 0.406 | 0.5 to 10 | 1 to 10 | 10 to 100 | 10 to 100 |  |  |  |  | NC(=O)c1cc2c([nH]1)-c1ccncc1O[C@H]2C1CCOCC1 (single isomer, unassigned) [Example 72]
2 | 0.00141 | 0.0224 | < 0.5 | < 1 | 1 to 10 | 1 to 10 |  |  |  |  | CC1(C)Oc2cnccc2-c2c1cc(C(N)=O)n2CCF [Example 52]
3 | 0.00323 | 0.354 | < 0.5 | < 1 | 10 to 100 | 10 to 100 |  |  |  |  | CCn1c(C(N)=O)c(-c2ccccc2OC)c2c1-c1ccncc1OC2(C)C [Example 68]
4 | 0.00141 | 0.0368 |  |  |  |  | 0.015 | 0.115 | 3.5 | 3.39 | CCn1c(C(N)=O)cc2c1-c1ccncc1OC2(C)C [Example 43]
